Square brackets hold non-standard residues; d marks the D form. Peptide text beside a SMILES is read from it. NMeW = CN[C@@H](Cc1c[nH]c2ccccc12)C(=O)O; NMeY = CN[C@@H](Cc1ccc(O)cc1)C(=O)O; NMeL = CN[C@@H](CC(C)C)C(=O)O; dNMeL = CN[C@H](CC(C)C)C(=O)O; Sar = CNCC(=O)O
Columns and labels:
[1] = Apparent permeability of the compound at 50 uM after 5 hrs by PAMPA method; type: physicochemical
[2] = Apparent permeability from apical to basolateral side in human Caco2 cells by LC-MS analysis; type: ADME, cell-based; conditions: Caco-2

## C=C[C@H]1C[N@@]2CC[C@H]1C[C@@H]2[C@@H](O)c1ccnc2ccc(OC)cc12 [QUINIDINE]
[1]
  Papp at 5 h, 50 µM: 3.28 ×10⁻⁶ cm/s

## CC(C)C[C@H]1NC(=O)[C@@H](Cc2ccccc2)NC(=O)CN(C)C(=O)[C@H](C)N(C)C(=O)[C@H](Cc2ccc(O)cc2)NC(=O)[C@@H]2CCCN2C1=O
[2]
  Papp A→B: < 0.14 ×10⁻⁶ cm/s
[1]
  Papp at 5 h, 50 µM: 0.03 ×10⁻⁶ cm/s

## CC(C)C[C@@H]1NC(=O)[C@H](Cc2c[nH]c3ccccc23)NC(=O)[C@H]2CCCN2C(=O)[C@@H](CC(C)C)NC(=O)[C@@H](CC(C)C)NC(=O)[C@@H](CC(C)C)NC1=O
[2]
  Papp A→B: 9.46 ×10⁻⁶ cm/s
[1]
  Papp at 5 h, 50 µM: 3.33 ×10⁻⁶ cm/s

## CC(C)C[C@@H]1NC(=O)[C@H](CC(C)C)N(C)C(=O)[C@@H](CC(C)C)N(C)C(=O)[C@H](Cc2ccc(O)cc2)NC(=O)[C@@H]2CCCN2C(=O)[C@H](CC(C)C)N(C)C1=O
[2]
  Papp A→B: 13.9 ×10⁻⁶ cm/s
[1]
  Papp at 5 h, 50 µM: 2.3 ×10⁻⁶ cm/s

## CC(C)C[C@@H]1NC(=O)[C@H](Cc2ccccc2)NC(=O)CN(C)C(=O)[C@H](CC(C)C)N(C)C(=O)[C@H](Cc2ccc(O)cc2)NC(=O)[C@@H]2CCCN2C1=O (cyclo(FLPY[NMeL][Sar]))
[2]
  Papp A→B: 0.1 ×10⁻⁶ cm/s
[1]
  Papp at 5 h, 50 µM: 0.1 ×10⁻⁶ cm/s

## CC(C)C[C@@H]1NC(=O)[C@H](Cc2ccccc2)NC(=O)CNC(=O)[C@H](C)NC(=O)[C@H](Cc2ccc(O)cc2)NC(=O)[C@H]2CCCN2C1=O
[2]
  Papp A→B: 0.27 ×10⁻⁶ cm/s
[1]
  Papp at 5 h, 50 µM: 0.01 ×10⁻⁶ cm/s

## CC(C)C[C@@H]1NC(=O)[C@H](Cc2ccc(O)cc2)NC(=O)[C@@H]2CCCN2C(=O)[C@@H](CC(C)C)NC(=O)[C@@H](CC(C)C)N(C)C(=O)[C@@H](CC(C)C)N(C)C1=O
[2]
  Papp A→B: 21.8 ×10⁻⁶ cm/s
[1]
  Papp at 5 h, 50 µM: 3.83 ×10⁻⁶ cm/s

## CC(C)C[C@@H]1NC(=O)[C@@H](CC(C)C)NC(=O)[C@@H](CC(C)C)NC(=O)[C@H](Cc2c[nH]c3ccccc23)NC(=O)[C@@H]2CCCN2C(=O)[C@@H](CC(C)C)NC1=O
[2]
  Papp A→B: 17.5 ×10⁻⁶ cm/s
[1]
  Papp at 5 h, 50 µM: 2.53 ×10⁻⁶ cm/s

## CC(C)C[C@@H]1C(=O)N(C)[C@@H](CC(C)C)C(=O)N(C)[C@@H](CC(C)C)C(=O)N2CCC[C@@H]2C(=O)N[C@@H](Cc2ccc(O)cc2)C(=O)N(C)[C@@H](CC(C)C)C(=O)N1C
[2]
  Papp A→B: 15.8 ×10⁻⁶ cm/s
[1]
  Papp at 5 h, 50 µM: 1.52 ×10⁻⁶ cm/s

## CC(C)C[C@@H]1NC(=O)[C@H](Cc2ccccc2)NC(=O)[C@H]([C@@H](C)O)NC(=O)CNC(=O)[C@H]([C@@H](C)O)NC(=O)[C@H](Cc2ccc(O)cc2)NC1=O (cyclo(FLYTGT))
[2]
  Papp A→B: 0.04 ×10⁻⁶ cm/s
[1]
  Papp at 5 h, 50 µM: 0.02 ×10⁻⁶ cm/s

## CC(C)C[C@H]1C(=O)N2CCC[C@@H]2C(=O)N(C)[C@@H](Cc2ccc(O)cc2)C(=O)N[C@@H](C)C(=O)NCC(=O)N(C)[C@@H](Cc2ccccc2)C(=O)N1C
[2]
  Papp A→B: 0.1 ×10⁻⁶ cm/s
[1]
  Papp at 5 h, 50 µM: 0.16 ×10⁻⁶ cm/s

## CC[C@H](C)[C@@H]1NC(=O)[C@H](C(C)C)NC(=O)[C@H](CC(C)C)NC(=O)CNC(=O)[C@@H]2CCCN2C(=O)[C@H](Cc2ccc(O)cc2)NC1=O (cyclo(GLVIYP))
[2]
  Papp A→B: 0.11 ×10⁻⁶ cm/s

## CC(C)C[C@@H]1NC(=O)[C@H](Cc2ccc(O)cc2)NC(=O)[C@@H]2CCCN2C(=O)[C@H]2CCCN2C(=O)[C@@H](CC(C)C)NC(=O)[C@H](CC(C)C)NC1=O
[2]
  Papp A→B: 0.1 ×10⁻⁶ cm/s
[1]
  Papp at 5 h, 50 µM: 0.09 ×10⁻⁶ cm/s

## CC(C)C[C@@H]1NC(=O)CNC(=O)[C@H](Cc2ccccc2)NC(=O)[C@H](CC(N)=O)NC(=O)[C@H](Cc2ccc(O)cc2)NC(=O)[C@H](C)NC1=O (cyclo(AYNFGL))
[2]
  Papp A→B: 0.02 ×10⁻⁶ cm/s
[1]
  Papp at 5 h, 50 µM: 0.01 ×10⁻⁶ cm/s

## C[C@@H]1NC(=O)[C@H](C)N(C)C(=O)[C@H](C)NC(=O)[C@H](C)N(C)C(=O)[C@H](C)NC(=O)[C@@H](C)NC1=O
[2]
  Papp A→B: < 0.14 ×10⁻⁶ cm/s
[1]
  Papp at 5 h, 50 µM: < 0.01 ×10⁻⁶ cm/s

## CC(C)C[C@@H]1NC(=O)[C@H](C(C)C)NC(=O)[C@H](Cc2c[nH]c3ccccc23)NC(=O)[C@H](Cc2ccccc2)NC(=O)[C@H](Cc2ccccc2)NC(=O)[C@@H]2CCCN2C1=O (cyclo(FFWVLP))
[2]
  Papp A→B: 0.24 ×10⁻⁶ cm/s
[1]
  Papp at 5 h, 50 µM: 0.37 ×10⁻⁶ cm/s

## CC(C)C[C@@H]1NC(=O)[C@H](Cc2ccccc2)NC(=O)CNC(=O)[C@@H](C)NC(=O)[C@H](Cc2ccc(O)cc2)NC(=O)[C@@H]2CCCN2C1=O
[2]
  Papp A→B: < 0.14 ×10⁻⁶ cm/s
[1]
  Papp at 5 h, 50 µM: 0.03 ×10⁻⁶ cm/s

## CC(C)C[C@@H]1NC(=O)[C@@H](CC(C)C)NC(=O)[C@H](CC(C)C)NC(=O)[C@H](Cc2ccc(O)cc2)N(C)C(=O)[C@H]2CCCN2C(=O)[C@H](CC(C)C)NC1=O (cyclo(LL[dP][NMeY]L[dL]))
[2]
  Papp A→B: 9.13 ×10⁻⁶ cm/s
[1]
  Papp at 5 h, 50 µM: 1.29 ×10⁻⁶ cm/s

## CC(C)C[C@@H]1NC(=O)[C@H](Cc2c[nH]c3ccccc23)NC(=O)[C@@H]2CCCN2C(=O)[C@H]2CCCN2C(=O)[C@@H](CC(C)C)NC(=O)[C@H](CC(C)C)NC1=O
[2]
  Papp A→B: 0.21 ×10⁻⁶ cm/s
[1]
  Papp at 5 h, 50 µM: 0.19 ×10⁻⁶ cm/s

## CN1C(=O)[C@H]2CCCN2C(=O)[C@H](CCCCN)NC(=O)[C@H](CCCNC(=N)N)NC(=O)[C@@H](CCCNC(=N)N)NC(=O)[C@H](CCCNC(=N)N)NC(=O)[C@@H]1Cc1c[nH]c2ccccc12
[2]
  Papp A→B: < 0.14 ×10⁻⁶ cm/s

## CC(C)C[C@@H]1NC(=O)[C@H](Cc2ccccc2)NC(=O)[C@H]([C@@H](C)O)NC(=O)CN(C)C(=O)[C@H]([C@@H](C)O)NC(=O)[C@H](Cc2ccc(O)cc2)NC1=O (cyclo(FLYT[Sar]T))
[2]
  Papp A→B: 0.17 ×10⁻⁶ cm/s
[1]
  Papp at 5 h, 50 µM: 0.02 ×10⁻⁶ cm/s

## CC[C@H](C)[C@@H]1NC(=O)[C@H](Cc2c[nH]c3ccccc23)NC(=O)[C@H]2CCCN2C(=O)[C@H]([C@@H](C)CC)NC(=O)[C@H]([C@@H](C)CC)NC(=O)[C@@H](CC(C)C)NC1=O
[2]
  Papp A→B: 3.06 ×10⁻⁶ cm/s
[1]
  Papp at 5 h, 50 µM: 0.41 ×10⁻⁶ cm/s

## CC(C)C[C@@H]1NC(=O)[C@H](Cc2ccc(O)cc2)NC(=O)[C@H]2CCCN2C(=O)[C@H](CC(C)C)NC(=O)[C@H](CC(C)C)N(C)C(=O)[C@@H](CC(C)C)NC1=O (cyclo(L[dL][NMeL]L[dP]Y))
[2]
  Papp A→B: 7.83 ×10⁻⁶ cm/s
[1]
  Papp at 5 h, 50 µM: 0.76 ×10⁻⁶ cm/s

## CC(C)C[C@@H]1NC(=O)[C@H](Cc2ccccc2)NC(=O)[C@@H](CC(C)C)N(C)C(=O)[C@H](CC(C)C)N(C)C(=O)[C@H](Cc2ccc(O)cc2)NC(=O)[C@@H]2CCCN2C1=O
[2]
  Papp A→B: 12 ×10⁻⁶ cm/s
[1]
  Papp at 5 h, 50 µM: 0.41 ×10⁻⁶ cm/s

## CC(C)C[C@@H]1NC(=O)[C@@H](CC(C)C)N(C)C(=O)[C@@H](CC(C)C)N(C)C(=O)[C@H](Cc2ccc(O)cc2)NC(=O)[C@@H]2CCCN2C(=O)[C@@H](CC(C)C)N(C)C1=O
[2]
  Papp A→B: 14.7 ×10⁻⁶ cm/s
[1]
  Papp at 5 h, 50 µM: 0.1 ×10⁻⁶ cm/s

## CC(C)C[C@@H]1NC(=O)[C@H](Cc2ccccc2)NC(=O)[C@H]([C@@H](C)O)NC(=O)CNC(=O)[C@H](C)NC(=O)[C@H](Cc2ccc(O)cc2)NC1=O (cyclo(AGTFLY))
[2]
  Papp A→B: 0.46 ×10⁻⁶ cm/s
[1]
  Papp at 5 h, 50 µM: 0.02 ×10⁻⁶ cm/s

## CC(C)C[C@H]1C(=O)N2CCC[C@H]2C(=O)N[C@@H](Cc2ccc(O)cc2)C(=O)N(C)[C@H](C)C(=O)N(C)CC(=O)N[C@@H](Cc2ccccc2)C(=O)N1C
[2]
  Papp A→B: < 0.14 ×10⁻⁶ cm/s

## CC(C)C[C@@H]1NC(=O)[C@H](C(C)C)NC(=O)[C@H](Cc2c[nH]c3ccccc23)N(C)C(=O)[C@H](Cc2ccccc2)NC(=O)[C@H](Cc2ccccc2)NC(=O)[C@@H]2CCCN2C1=O (cyclo(FF[NMeW]VLP))
[2]
  Papp A→B: 1.7 ×10⁻⁶ cm/s

## CC(C)C[C@H]1C(=O)N2CCC[C@H]2C(=O)N[C@@H](Cc2ccccc2)C(=O)N[C@@H](Cc2ccccc2)C(=O)N[C@@H](Cc2c[nH]c3ccccc23)C(=O)N[C@@H](C(C)C)C(=O)N1C (cyclo(FFWV[NMeL]P))
[2]
  Papp A→B: 6.82 ×10⁻⁶ cm/s

## CC(C)C[C@@H]1NC(=O)[C@@H](CC(C)C)N(C)C(=O)[C@H](CC(C)C)NC(=O)[C@H](Cc2ccc(O)cc2)NC(=O)[C@H]2CCCN2C(=O)[C@H](CC(C)C)NC1=O (cyclo(LL[dP]YL[dNMeL]))
[1]
  Papp at 5 h, 50 µM: 0.77 ×10⁻⁶ cm/s

— ChEMBL document CHEMBL3425496, “Exploring experimental and computational markers of cyclic peptides: Charting islands of permeability” (Eur J Med Chem, 2015)
